Reference: EP0111455A2, “Unsaturated lactones” (CIBA-GEIGY AG, priority 1982, dated 1984)

Assays:
[1] = test system: isolierten, elektrisch gereizten, linken Vorhöfen des Meerschweinchens; experiment: positive inotropic effect on isolated, electrically stimulated left atria (method after J.V. Levy); type: cell-based, Meerschweinchen; settings: for Emax: Cavia porcellus, extent of positive inotropic effect in % of the maximal increase of contraction force by Isoproterenol, read-out: Ausmass der Wirkung (% von ISOmax); for EC50: concentration for half of the maximal positive inotropic effect, left atria, guinea pig, read-out: Wirksamkeit EC50; for IC25 / IC50: negative inotropic effect, same set-up; for IC25: read-out: Konzentration für Reduktion der Kontraktionskraft um 25 %; for IC50: read-out: Konzentration für Reduktion der Kontraktionskraft um 50 %; for Kontraktionskraft (Art der Wirkung): qualitative, exclusively a decrease of contraction force
Excerpt: (§1) Die Steigerung der myocardialen Kontraktilität, d.h. die positiv inotrope Wirkung, kann z.B. anhand von Versuchsanordnungen nachgewiesen werden, die sich auf die von J.V. Levy, Isolated Atrial Preparations in Methods in Pharmacology, Bd. 1, S. 77 bis 104 (Ed. A. Schwartz; Appleton-Century-Crofts, New York; 1971),beschriebene Methodik, stützen. So steigern die Verbindungen der Formel I und Salze von solchen Verbindungen mit salzbildenden Eigenschaften in Konzentrationen ab etwa 0,1 umol/L an isolierten, elektrisch gereizten, linken Vorhöfen des Meerschweinchens (in vitro-Versuchsanordnung) die maximale Kontraktionskraft (peak developed tension). Das Ausmass (efficacy) dieser positiv inotropen Wirkung ist dabei unterschiedlich, kann jedoch bis zu 90 % der mit Isoproterenol maximal erreichbaren Wirkung betragen. Ferner steigern sie in Konzentrationen ab etwa 0,3 µ mol/L an isolierten, spontan schlagenden, rechten Vorhöfen des Meerschweinchens die Kontraktionsfrequenz. Das Ausmass (efficacy) dieser positiv chronotropen Wirkung ist dabei unterschiedlich, kann jedoch bis zu 60% der mit Isoproterenol maximal erreichbaren Wirkung betragen.
In der folgenden Tabelle werden die Konzentrationen (in µmol/L) für Verbindungen der Formel I angegeben, die notwendig sind, um die Hälfte der maximalen positiv inotropen Wirkung zu erzielen (EC50). Das Ausmass der Wirkung wird in % der maximalen, mittels Isoproterenol in dieser Versuchsanordnung bewirkten Steigerung der Kontraktionskraft (ISOmax.) angegeben; diejenige von Isoproterenol beträgt +2.1 +0.1 g (x ± SK; N=30).
Im Gegensatz dazu weist z.B. der obgenannte 2-Cyan-6-methyl-4-(3-nitrophenyl)-1,4-dihydro-pyridin-3,5-dicarbonsäure-5-isopropylester-3-methylester in der gleichen Versuchsanordnung eine Reduktion der Kontraktionskraft um 25 % bei einer Konzentration von 1 µmol/L und um 50 % bei einer solchen von 8 µmol/L auf, während Nifedipin bei einer Konzentration von 0.1 µmol/L eine 25 %ige und von 0.4 µmo 1/1 eine 50 Zige Reduktion der myocardialen Kontraktionskraft bewirkt.

[2] = test system: isolierten, spontan schlagenden, rechten Vorhöfen des Meerschweinchens; experiment: positive chronotropic effect on isolated, spontaneously beating right atria; type: cell-based, Meerschweinchen; settings: qualitative; exclusively a decrease of contraction frequency
Excerpt: as §1

narkotisierten Katze = experiment: arterial blood pressure in the anaesthetised cat, intravenous; type: in vivo; settings: qualitative, i.v., doses from about 0,001 mg/kg
Procedure: An der narkotisierten Katze führen die Verbindungen der Formel I und Salze von solchen Verbindungen mit salzbildenden Eigenschaften bei intravenöser Verabreichung in Dosen ab etwa 0,001 mg/kg zu einer Steigerung des arteriellen Blutdrucks.

männliche Ratten = experiment: central nervous system stimulation (behaviour) in male rats, i.p.; type: in vivo; settings: 50 mg/kg i.p. as solution in Polyäthylenglycol 400; during 1 hour, especially 30 minutes after administration
Procedure: Die Verbindungen der Formel I sowie Salze von solchen Verbindungen mit salzbildenden Eigenschaften wirken ferner aktivierend, insbesondere stimulierend, auf das Zentralnervensystem. So bewirkt z.B. die i.p.-Verabreichung von 50 mg/kg 4-(2-Difluormethoxyphenyl)-2-methyl-5-oxo-1,4,5,7-tetrahydro-fuo[3,4-b]pyridin-3-carbonsäureäthylester als Lösung in Polyäthylenglycol 400 an männliche Ratten während 1 Stunde, insbesondere während 30 Minuten nach Verabreichung Schnuppern, Kau- und Putzaktivität, sporadische. Schüttelbewegungen von Kopf und Körper sowie Vorderpfoten-Klonus. Aufgrund dieser Eigenschaften erscheinen die Verbindungen der Formel I sowie Salze von solchen Verbindungen mit salzbildenden Eigenschaften für die Behandlung retardierter Depressionen verschiedenen Schweregrades, von psychischen, von fehlendem Antrieb und Initiative begleiteten Störungen sowie von hypokinetischen, geriatrischen Patienten geeignet.

narkotisierten Hund = experiment: haemodynamics and blood glucose in the anaesthetised dog, intravenous; type: in vivo; settings: qualitative
Procedure: Im narkotisierten Hund (in vivo-Versuchsanordnung) bewirken die Verbindungen der Formel I und Salze von solchen Verbindungen mit salzbildenen Eigenschaften bei intravenöser Verabreichung in Dosen ab etwa 1 mg/kg ebenfalls eine Steigerung der myokardialen Kontraktilität (Zunahme der maximalen Druckanstiegsgeschwindigkeit dP/dt in der max Aorta) um etwa 40 bis etwa 60 %, sowie eine Steigerung des arteriellen Blutdrucks um etwa 10 bis etwa 30 %, ferner eine Abnahme der GlucoseKonzentration im Blut um etwa 10 bis etwa 30 %.

Row | SMILES | Emax [1] [%] | EC50 [1] [nM] | further results
1 | CC(C)NCC(O)c1ccc(O)c(O)c1 (centres unmarked) [Isoproterenol, reference compound] | – | – | maximale Steigerung der Kontraktionskraft (ISOmax.) ([1]; x ± SK, N=30): 2.1 ± 0.1 g
2 | COC(=O)C1=C(C)NC2=C(C(=O)OC2)C1c1ccccc1OC(F)F (centres unmarked) [-COOCH3; 2-Difluormethoxy-phenyl, 4-(2-Difluormethoxyphenyl)-2-methyl-5-oxo-l,4,5,7-tetrahydro-furo[3,4-b]pyridin-3-carbonsäure-methylester] | 70 | 3700 | –
3 | CCOC(=O)C1=C(C)NC2=C(C(=O)OC2)C1c1cccc(OC(F)F)c1OC(F)F (centres unmarked) [-COOC2H5; 2,3-Di-difluor-methoxyphenyl, 4-[2,3 Di-(difluormethoxy)-phenyl]-2-methyl-5-oxo-1,4,5,7-tetrahydro-furo[3,4-b]pyridin-3-carbonsäure-äthylester] | 14 | – | –
4 | COCCOC(=O)C1=C(C)NC2=C(C(=O)OC2)C1c1ccccc1OC(F)F (centres unmarked) [-COOC2H4OCH3; 2-Difluormethoxy-phenyl, 4-(2-Difluormethoxyphenyl)-2-methyl-5-oxo-1,4,5,7-tetrahydro-furo[3,4-b]pyridin-3-carbonsäure-(2-methoxyäthyl)-ester] | 90 | 5300 | –
5 | CCOC(=O)C1=C(C)NC2=C(C(=O)OC2)C1c1ccccc1SC(F)F (centres unmarked) [-COOC2H5; 2-Difluormethyl-mercaptophenyl, 4-(2-Difluormethylmercaptophenyl)-2-methyl-5-oxo-1,4,5,7-tetrahydro-furo[3,4-b]pyridin-3-carbonsäure-äthylester] | 80 | 1000 | –
6 | CC1=C(C#N)C(c2ccccc2OC(F)F)C2=C(COC2=O)N1 (centres unmarked) [-CN; 2-Difluormethoxy-phenyl, 4-(2-Difluormethoxy-phenyl)-2-methyl-5-oxo-1,4,5,7-tetrahydro-furo[3,4-b]pyridin-3-carbonitril] | 68 | 63000 | –
7 | CCOC(=O)C1=C(C)NC2=C(C(=O)OC2)C1c1ccc(OC(F)F)cc1 (centres unmarked) [-COOC2H5; 4-Difluormethoxy-phenyl, 4-(4-Difluormethoxy-phenyl)-2-methyl-5-oxo-1,4,5,7-tetrahydro-furo[3,4-b]pyridin-3-carbonsäureäthylester] | 10 | – | –
8 | CCOC(=O)C1=C(C)NC2=C(C(=O)OC2)C1c1ccccc1OCCOC (centres unmarked) [-COOC2H5; 2-(2-Methoxyäthoxy)-phenyl, 2 Methyl-4-[2-(2-methoxyäthoxy)-phenyl]-5-oxo-1,4,5,7-tetrahydro-furo[3,4-b]pyridin-3-carbonsäure-äthylester] | 80 | 3800 | –
9 | COC(=O)C1=C(C#N)NC(C)=C(C(=O)OC(C)C)C1c1cccc([N+](=O)[O-])c1 (centres unmarked) [2-Cyan-6-methyl-4-(3-nitrophenyl)-1,4-dihydro-pyridin-3,5-dicarbonsäure-5-isopropylester-3-methylester, reference compound] | – | – | IC25 [1]: 1000 nM; IC50 [1]: 8000 nM; Kontraktionskraft (Art der Wirkung) [1]: negativ inotrope Wirkung; Kontraktionsfrequenz (Art der Wirkung) [2]: negativ chronotrope Wirkung; arterieller Blutdruck (Art der Wirkung) (narkotisierten Katze): Senkung des arteriellen Blutdrucks
10 | CCOC(=O)C1=C(C)NC2=C(C(=O)OC2)C1c1cccc(OC(F)F)c1 (centres unmarked) [-COOC2H5; 3-Difluormethoxy-phenyl, 4-(3-Difluormethoxyphenyl)-2-methyl-5-oxo-1,4,5,7-tetrahydro-furo [3,4-b]pyridin-3-carbonsäure-äthylester] | 65 | 4800 | –
11 | CCOC(=O)C1=C(C)NC2=C(C(=O)OC2)C1c1ccccc1OC(F)(F)C(F)Cl (centres unmarked) [4-[2-(2-Chlor-1,1,2-trifluor-äthoxy)-phenyl]-2-methyl-5-oxo-1,4,5,7-tetrahydro-furo-[3,4-b]pyridin-3-carbonsäureäthylester] | 75 | 1000 | –
12 | CCOC(=O)C1=C(C)NC2=C(C(=O)OC2)C1c1ccccc1OCCSC (centres unmarked) [2-Methyl-4-[2-(2-methylthioäthoxy)-phenyl]-5-oxo-_ 1,4,5,7-tetrahydro-fnro[3,4-b]pyridin-3-carbonsäure-äthylester] | 75 | 380 | –
13 | CCOC(=O)C1=C(C)NC2=C(C(=O)OC2)C1c1ccccc1OC(F)F (centres unmarked) [-COOC2H5; 2-Difluormethoxy-phenyl, 4-(2-Difluormethoxy-phenyl)-2-methyl-5-oxo-1,4-5,7-tetrahydro-furo[3,4-b]pyridin-3-carbonsäureäthylester] | 65 | 700 | Wirkung auf das Zentralnervensystem (Verhalten) (männliche Ratten): Schnuppern, Kau- und Putzaktivität, sporadische. Schüttelbewegungen von Kopf und Körper sowie Vorderpfoten-Klonus
14 | COC(=O)C1=C(C)NC(C)=C(C(=O)OC)C1c1ccccc1[N+](=O)[O-] [Nifedipin, 2,6-Dimethyl-4-(2-nitrophenyl)-1,4-dihydro-pyridin-3,5-dicarbonsäure-dimethylester, reference compound] | – | – | IC25 [1]: 100 nM; IC50 [1]: 400 nM; Kontraktionskraft (Art der Wirkung) [1]: negativ inotrope Wirkung; Kontraktionsfrequenz (Art der Wirkung) [2]: negativ chronotrope Wirkung; Blutdruck (Art der Wirkung) (narkotisierten Hund): Senkung des Blutdrucks; arterieller Blutdruck (Art der Wirkung) (narkotisierten Katze): Senkung des arteriellen Blutdrucks
15 | CC1=C(C(=O)OC(C)C)C(c2ccccc2OC(F)F)C2=C(COC2=O)N1 (centres unmarked) [-COOCH(CH3)2; 2-Difluormethoxy-phenyl, 4-(2-Difluormethoxyphenyl)-2-methyl-5-oxo-1,4,5,7-tetra-hydro-furo[3,4-b]pyridin-3-carbonsäure-isopropylester] | 70 | 1200 | –
